Results from PubChem BioAssay AID248 (DTP/NCI, 2004).
Where “and” joins values, the source holds several entries; their conditions need not be identical. Identical values can stand only once. Toxic doses and inconclusive results are not listed. Rule as the data show it: active = T/C of 150% or more; inactive = T/C below 125%.

Test system: L1210 leukemia ip in BDF1 mice, survival T/C
Experiment: NCI In Vivo Anticancer Drug Screen. Data for tumor model L1210 Leukemia (intraperitoneal) in B6D2F1 (BDF1) mice
Conditions: endpoint: mean survival time, higher = longer survival
In short: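 Each compound was tested against a transplantable tumor grown in mice. The endpoint was survival, with treated animals benchmarked against vehicle controls as a simple ratio.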

[1] = dose: 25.0 mg/kg/injection, schedule: Q04DX003 (ip), vehicle: saline with Tween-80
[2] = dose: 50.0 mg/kg/injection, schedule: Q01DX009 (ip), vehicle: saline with Tween-80
[3] = dose: 50.0 mg/kg/injection, schedule: Q04DX003 (ip), vehicle: saline with Tween-80
[4] = dose: 100.0 mg/kg/injection, schedule: Q01DX001 (ip), vehicle: saline with Tween-80
[5] = dose: 100.0 mg/kg/injection, schedule: Q01DX009 (ip), vehicle: saline with Tween-80
[6] = dose: 100.0 mg/kg/injection, schedule: Q04DX003 (ip), vehicle: saline with Tween-80
[7] = dose: 200.0 mg/kg/injection, schedule: Q01DX001 (ip), vehicle: saline with Tween-80
[8] = dose: 200.0 mg/kg/injection, schedule: Q01DX009 (ip), vehicle: saline with Tween-80
[9] = dose: 200.0 mg/kg/injection, schedule: Q04DX003 (ip), vehicle: saline with Tween-80
[10] = dose: 400.0 mg/kg/injection, schedule: Q01DX001 (ip), vehicle: saline with Tween-80
[11] = dose: 50.0 mg/kg/injection, schedule: Q04DX002 (ip), vehicle: Klucel (hydroxypropylcellulose) (HPC)
[12] = dose: 100.0 mg/kg/injection, schedule: Q04DX003 (ip), vehicle: Klucel (hydroxypropylcellulose) (HPC)
[13] = dose: 100.0 mg/kg/injection, schedule: Q01DX001 (ip), vehicle: saline
[14] = dose: 200.0 mg/kg/injection, schedule: Q01DX001 (ip), vehicle: saline
[15] = dose: 400.0 mg/kg/injection, schedule: Q01DX001 (ip), vehicle: saline
[16] = dose: 200.0 mg/kg/injection, schedule: Q04DX003 (ip), vehicle: Klucel (hydroxypropylcellulose) (HPC)
[17] = dose: 400.0 mg/kg/injection, schedule: Q04DX003 (ip), vehicle: Klucel (hydroxypropylcellulose) (HPC)

Measured: T/C

O=C(O)Cc1cccc(S(=O)(=O)F)c1
inactive: [1] 96 % of control | [2] 109 % of control | [3] 99 % of control | [4] 96 % of control | [5] 111 % of control | dose: 100.0 mg/kg/injection, schedule: Q04DX002 (ip), vehicle: saline with Tween-80 91 % of control | [6] 99 % of control and 100 % of control | [7] 92 % of control | [8] 104 % of control | dose: 200.0 mg/kg/injection, schedule: Q04DX002 (ip), vehicle: saline with Tween-80 86 % of control | [9] 105 % of control | [10] 100 % of control

COCP(=O)(O)O
inactive: dose: 100.0 mg/kg/injection, schedule: Q04DX002 (ip), vehicle: saline 96 % of control | dose: 200.0 mg/kg/injection, schedule: Q04DX002 (ip), vehicle: saline 100 % of control

O=C(O)C(O)C(O)C(=O)O (stereo unspecified)
inactive: dose: 100.0 mg/kg/injection, schedule: Q01DX009 (ip), vehicle: saline 106 % of control | dose: 200.0 mg/kg/injection, schedule: Q01DX009 (ip), vehicle: saline 104 % of control | dose: 400.0 mg/kg/injection, schedule: Q01DX009 (ip), vehicle: saline 102 % of control

NC(CCl)=NCCCN1CCCCC1
inactive: dose: 12.5 mg/kg/injection, schedule: Q01DX009 (ip), vehicle: Klucel (hydroxypropylcellulose) (HPC) 104 % of control | dose: 12.5 mg/kg/injection, schedule: Q04DX002 (ip), vehicle: Klucel (hydroxypropylcellulose) (HPC) 107 % of control | dose: 25.0 mg/kg/injection, schedule: Q01DX009 (ip), vehicle: Klucel (hydroxypropylcellulose) (HPC) 96 % of control | dose: 25.0 mg/kg/injection, schedule: Q04DX002 (ip), vehicle: Klucel (hydroxypropylcellulose) (HPC) 96 % of control | [11] 105 % of control

COC(=O)c1ccccc1C(=O)c1ccccc1
inactive: dose: 100.0 mg/kg/injection, schedule: Q04DX003 (ip), vehicle: carboxymethylcellulose (CMC) 101 % of control | dose: 200.0 mg/kg/injection, schedule: Q04DX003 (ip), vehicle: carboxymethylcellulose (CMC) 102 % of control | dose: 400.0 mg/kg/injection, schedule: Q04DX003 (ip), vehicle: carboxymethylcellulose (CMC) 96 % of control

O=[N+]([O-])CC(O)c1ccccc1Cl (stereo unspecified)
inactive: [2] 95 % of control | [5] 98 % of control

Oc1cccc2oc(=S)[nH]c12
inactive: dose: 25.0 mg/kg/injection, schedule: Q04DX003 (ip), vehicle: Klucel (hydroxypropylcellulose) (HPC) 106 % of control | dose: 50.0 mg/kg/injection, schedule: Q04DX003 (ip), vehicle: Klucel (hydroxypropylcellulose) (HPC) 92 % of control | [12] 103 % of control | [6] 95 % of control and 100 % of control | [9] 110 % of control

CC1=C(c2ccccc2)C(O)(c2ccccc2)C(C)C1=O (stereo unspecified)
inactive: dose: 50.0 mg/kg/injection, schedule: Q01DX009 (ip), vehicle: Klucel (hydroxypropylcellulose) (HPC) 101 % of control | dose: 100.0 mg/kg/injection, schedule: Q01DX009 (ip), vehicle: Klucel (hydroxypropylcellulose) (HPC) 93 % of control | dose: 200.0 mg/kg/injection, schedule: Q01DX009 (ip), vehicle: Klucel (hydroxypropylcellulose) (HPC) 95 % of control

CNC(=O)n1cncn1
inactive: [13] 95 % of control | dose: 100.0 mg/kg/injection, schedule: Q04DX003 (ip), vehicle: saline 101 % of control | [14] 93 % of control | dose: 200.0 mg/kg/injection, schedule: Q04DX003 (ip), vehicle: saline 95 % of control | [15] 95 % of control

O=C(O)c1ccc(Cn2ccc(=O)[nH]c2=O)cc1
inactive: [4] 95 % of control | [7] 107 % of control | [10] 101 % of control

CN1C(C(=O)c2ccc(-c3ccccc3)cc2)C1c1ccccc1 (stereo unspecified)
inactive: dose: 100.0 mg/kg/injection, schedule: Q01DX001 (ip), vehicle: Klucel (hydroxypropylcellulose) (HPC) 93 % of control | dose: 200.0 mg/kg/injection, schedule: Q01DX001 (ip), vehicle: Klucel (hydroxypropylcellulose) (HPC) 97 % of control | dose: 400.0 mg/kg/injection, schedule: Q01DX001 (ip), vehicle: Klucel (hydroxypropylcellulose) (HPC) 110 % of control

O=C(COc1ccc(Cl)cc1Cl)Nc1cc(Cl)ccc1Cl
inactive: dose: 100.0 mg/kg/injection, schedule: Q04DX002 (ip), vehicle: gum acacia 95 % of control | dose: 200.0 mg/kg/injection, schedule: Q04DX002 (ip), vehicle: gum acacia 95 % of control | dose: 400.0 mg/kg/injection, schedule: Q04DX002 (ip), vehicle: gum acacia 100 % of control

CC(C)c1ccc(C(=S)N2CCOCC2)cc1
inactive: [12] 97 % of control | [16] 101 % of control | [17] 105 % of control

CN1CN(c2ccccc2)C2(CCN(Cc3ccccc3)CC2)C1=O
inactive: [13] 101 % of control | [14] 101 % of control | [15] 103 % of control

O=C1CC2CCCC(C1)N2CC1COc2ccccc2O1 (stereo unspecified)
inactive: [11] 90 % of control | dose: 100.0 mg/kg/injection, schedule: Q04DX002 (ip), vehicle: Klucel (hydroxypropylcellulose) (HPC) 90 % of control | dose: 200.0 mg/kg/injection, schedule: Q04DX002 (ip), vehicle: Klucel (hydroxypropylcellulose) (HPC) 93 % of control

O=[N+]([O-])c1cc(F)c(F)cc1F
inactive: [12] 98 % of control | [16] 107 % of control

Cc1ccc(CCCC(=O)O)c(C)c1
inactive: [5] 105 % of control | [8] 92 % of control | dose: 400.0 mg/kg/injection, schedule: Q01DX009 (ip), vehicle: saline with Tween-80 96 % of control

COc1cc2c(cc1OC(C)=O)C(=O)CCCC2
inactive: [12] 91 % of control | [16] 97 % of control | [17] 96 % of control

CC(C)(C)NC(=O)Nc1cccc(OC(=O)NC(C)(C)C)c1
inactive: [6] 90 % of control | [9] 87 % of control | dose: 400.0 mg/kg/injection, schedule: Q04DX003 (ip), vehicle: saline with Tween-80 87 % of control

NC(=O)c1cc(NC(=O)c2ccc(C(=O)Nc3cc(C(N)=O)cc(C4=NCCN4)c3)cc2)cc(C2=NCCN2)c1
inactive: dose: 4.0 mg/kg/injection, schedule: Q01DX015 (ip), vehicle: methylcellulose (MC) 103 % of control | dose: 8.0 mg/kg/injection, schedule: Q01DX015 (ip), vehicle: methylcellulose (MC) 92 % of control | dose: 16.0 mg/kg/injection, schedule: Q01DX015 (ip), vehicle: methylcellulose (MC) 105 % of control | dose: 62.5 mg/kg/injection, schedule: Q01DX015 (ip), vehicle: methylcellulose (MC) 116 % of control | dose: 125.0 mg/kg/injection, schedule: Q01DX015 (ip), vehicle: methylcellulose (MC) 117 % of control

CC(=O)OCC1OC(n2nnc(CBr)c2CBr)C(OC(C)=O)C(OC(C)=O)C1OC(C)=O (stereo unspecified)
inactive: dose: 12.5 mg/kg/injection, schedule: Q01DX005 (ip), vehicle: other 94 % of control | dose: 25.0 mg/kg/injection, schedule: Q01DX005 (ip), vehicle: other 102 % of control | dose: 50.0 mg/kg/injection, schedule: Q01DX005 (ip), vehicle: other 97 % of control

NC(N)=NC(N)=Nc1ccc(N=C(N)N=C(N)N)cc1
inactive: dose: 100.0 mg/kg/injection, schedule: Q01DX001 (ip), vehicle: other 104 % of control

O=S1(=O)CC(N2CCCCC2)C1CN1CCCCC1 (stereo unspecified)
inactive: dose: 75.0 mg/kg/injection, schedule: Q01DX001 (ip), vehicle: saline 97 % of control | dose: 150.0 mg/kg/injection, schedule: Q01DX001 (ip), vehicle: saline 89 % of control

CSc1cc(-c2ccc(Cl)cc2)s[s+]1
inactive: dose: 12.5 mg/kg/injection, schedule: Q01DX009 (ip), vehicle: saline with Tween-80 95 % of control | dose: 25.0 mg/kg/injection, schedule: Q01DX009 (ip), vehicle: saline with Tween-80 90 % of control | [1] 100 % of control | [2] 97 % of control | [3] 103 % of control | [6] 98 % of control and 86 % of control
